Columns and labels:
Zucker Fatty rats = assay: Evaluation of hypoglycemic action (blood glucose levels after oral gavage); type: in vivo; conditions: gavage 3 mg/kg, HCl salt form, 2 or 4 hours after dosing, free access to feed
Procedure: Zucker Fatty rats (male, 11-19 week-old, Charles River Japan, Inc.) known to spontaneously develop hyperglycemia were randomly assigned to the groups (6 per group). The animals were individually housed in a polycarbonate cage and allowed to drink water freely from a watering bottle. The animals in the compound groups were gavaged with compound No. 10, 87, 19, or 69 at the dose of 3 mg/kg. These compounds were used as HCl salt form thereof, converted by the method according to Example 3, step 6 from TFA salt form thereof upon the necessity. The animals in the control group were only treated with the vehicle (0.5% methylcellulose). Animals were allowed free access to the feed (CRF-1, Oriental Yeast Co., Ltd.) during the experiment. An aspirate of the blood (6 μL) was collected from the tail vein on the time point of immediately before dosing (time 0) as well as 2, 4, and 8 hours after dosing. The blood glucose levels were determined with ACCU-CHEK Aviva (Roche Diagnostics K.K.).

[1] = biological target: recombinant human enteropeptidase (Homo sapiens (Human), UniProt P98073); assay: Measurement of enteropeptidase inhibitory activity; type: biochemical; conditions: substrate Gly-Asp-Asp-Asp-Asp-Lys-β-Naphtylamide, Tris-HCl pH 8.0, Dixon plot
Procedure: Using a 96 well plate (#3915, Costar), a test compound (25 μL), 400 mM Tris-HCl buffer (pH 8.0, 25 μL) and 0.5 mg/mL, fluorescence enzyme substrate (Gly-Asp-Asp-Asp-Asp-Lys-β-Naphtylamide, 25 μL) were mixed, and recombinant human enteropeptidase (R&D Systems, Inc., 25 μL) was added. Using a fluorescence plate reader fmax (Molecular Devices, Inc.), the reaction rate was measured from the time-course changes at excitation wavelength 320 nm and fluorescence wavelength 405 nm. The Ki value was calculated from the concentration of the test compound, reciprocal of reaction rate, and Km value of the enzyme substrate, and by using Dixon plot.

human trypsin [2] = biological target: human trypsin (Homo sapiens, UniProt P07477); assay: Measurement of trypsin inhibitory activity; type: biochemical; conditions: substrate Boc-Phe-Ser-Arg-AMC, Tris-HCl pH 8.0, Dixon plot
Procedure: (§1) Using a 96 well plate (#3915, Costar), a test compound (25 μL) was mixed with 20 μM fluorescence enzyme substrate (Boc-Phe-Ser-Arg-AMC, 50 μL) mixed with 200 mM Tris-HCl buffer (pH 8.0), and human trypsin (Sigma, 25 μL) was added. Using a fluorescence plate reader fmax (Molecular Devices, Inc.), the reaction rate was measured from the time-course changes at excitation wavelength 355 nm and fluorescence wavelength 460 nm. The Ki value was calculated from the concentration of the test compound, reciprocal of reaction rate, and Km value of the enzyme substrate, and by using Dixon plot.

human trypsin [3] = assay: Measurement of trypsin inhibitory activity; type: biochemical; conditions: substrate Boc-Phe-Ser-Arg-AMC, Tris-HCl pH 8.0, Dixon plot
Procedure: as §1

Sequence of recombinant human enteropeptidase (P98073 whole entry): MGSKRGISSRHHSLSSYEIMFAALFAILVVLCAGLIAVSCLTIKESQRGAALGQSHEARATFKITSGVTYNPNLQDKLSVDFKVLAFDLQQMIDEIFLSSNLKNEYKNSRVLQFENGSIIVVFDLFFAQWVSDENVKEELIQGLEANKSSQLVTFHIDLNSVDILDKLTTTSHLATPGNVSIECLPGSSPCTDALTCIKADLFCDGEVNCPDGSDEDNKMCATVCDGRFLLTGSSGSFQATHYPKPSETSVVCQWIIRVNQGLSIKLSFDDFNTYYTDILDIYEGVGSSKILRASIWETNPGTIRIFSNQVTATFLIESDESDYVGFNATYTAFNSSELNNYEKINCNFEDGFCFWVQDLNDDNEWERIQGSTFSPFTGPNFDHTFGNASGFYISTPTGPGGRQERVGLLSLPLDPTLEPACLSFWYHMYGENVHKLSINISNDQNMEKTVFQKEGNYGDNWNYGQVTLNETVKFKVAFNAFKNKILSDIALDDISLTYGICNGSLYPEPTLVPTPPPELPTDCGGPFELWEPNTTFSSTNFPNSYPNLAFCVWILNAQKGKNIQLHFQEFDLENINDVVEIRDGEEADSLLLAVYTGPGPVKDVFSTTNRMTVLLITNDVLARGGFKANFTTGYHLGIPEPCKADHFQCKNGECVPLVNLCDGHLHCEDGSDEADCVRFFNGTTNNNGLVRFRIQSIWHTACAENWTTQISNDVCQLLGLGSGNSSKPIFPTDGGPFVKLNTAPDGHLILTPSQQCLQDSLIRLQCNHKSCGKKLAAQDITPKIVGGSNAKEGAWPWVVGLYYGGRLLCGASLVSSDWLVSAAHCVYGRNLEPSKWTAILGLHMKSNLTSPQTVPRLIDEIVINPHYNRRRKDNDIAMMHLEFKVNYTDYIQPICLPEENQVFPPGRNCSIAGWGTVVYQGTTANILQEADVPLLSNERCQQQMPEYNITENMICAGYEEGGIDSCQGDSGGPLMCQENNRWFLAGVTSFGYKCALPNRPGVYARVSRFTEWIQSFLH

Ki [1] [nM] | Ki (human trypsin [2]) [nM] | Ki (human trypsin [3]) [nM] | Structure (SMILES) | blood glucose levels compared with vehicle group (Zucker Fatty rats)
– | – | – | CCCN(CC(=O)O)C(=O)C(C)(C)Cc1ccc(C(=O)Oc2ccc(C(=N)N)cc2F)s1.Cl [Compound 10, N-{3-[5-(4-amidino-2-fluorophenoxycarbonyl)thiophen-2-yl]-2,2-dimethylpropionyl}-N-propylglycine hydrochloride] | significantly decreased
– | – | – | CCC(CC)(Cc1ccc(C(=O)Oc2ccc(C(=N)N)cc2F)s1)C(=O)N[C@@H](CC(=O)O)C(=O)O.Cl [Compound 19] | significantly decreased
– | – | – | CC(C)(Cc1ccc(C(=O)Oc2ccc(C(=N)N)cc2F)s1)C(=O)N[C@@H](C(=O)O)c1ccc(O)cc1.O=C(O)C(F)(F)F [Compound 69] | significantly decreased
3.52 | 5.32 | – | CCC(CC)(Cc1ccc(C(=O)Oc2ccc(C(=N)N)cc2F)s1)C(=O)Nc1ccc(O)c(C(=O)O)c1 [Compound 82] | –
0.72 | – | 1.42 | CCC(CC)(Cc1ccc(C(=O)Oc2ccc(C(=N)N)cc2F)s1)C(=O)NCC(=O)O [Compound 83] | –
0.43 | – | 3.27 | CCC(CC)(Cc1ccc(C(=O)Oc2ccc(C(=N)N)cc2F)s1)C(=O)N[C@@H](CCC(=O)O)c1nnn[nH]1 [Compound 84] | –
0.81 | 0.69 | – | CC(C)(Cc1ccc(C(=O)Oc2ccc(C(=N)N)cc2F)s1)C(=O)N[C@H]1CCC[C@@H](C(=O)O)C1 [Compound 85] | –
0.24 | 3.4 | – | CCC(CC)(Cc1ccc(C(=O)Oc2ccc(C(=N)N)cc2F)s1)C(=O)N[C@@H](Cc1nn[nH]n1)C(=O)O [Compound 86] | –
1 | 2.87 | – | CCC(CC)(Cc1ccc(C(=O)Oc2ccc(C(=N)N)cc2F)s1)C(=O)N1CC(C(=O)O)C1 [Compound 88] | –
0.84 | – | 1.17 | CCC(CC)(Cc1ccc(C(=O)Oc2ccc(C(=N)N)cc2F)s1)C(=O)Nc1cccc(S(=O)(=O)O)c1 [Compound 89] | –
0.55 | 1.7 | – | CCC(CC)(Cc1ccc(C(=O)Oc2ccc(C(=N)N)cc2F)s1)C(=O)Nc1ccc(C(=O)O)c(C(=O)O)c1 [Compound 90] | –
0.9 | 1.33 | – | CC(C)(Cc1ccc(C(=O)Oc2ccc(C(=N)N)cc2F)s1)C(=O)N1CC[C@H](C(=O)O)C1 [Compound 91] | –
0.3 | – | 0.9 | CC(C)(Cc1ccc(C(=O)Oc2ccc(C(=N)N)cc2F)s1)C(=O)N1C[C@H](O)C[C@H]1C(=O)O [Compound 93] | –
1.3 | – | 1.98 | CC(C)(Cc1ccc(C(=O)Oc2ccc(C(=N)N)cc2F)s1)C(=O)N[C@H]1CC=CC[C@H]1C(=O)O [Compound 94] | –

Structure (SMILES) | Ki [1] [nM] | Ki (human trypsin [2]) [nM] | Ki (human trypsin [3]) [nM] | blood glucose levels compared with vehicle group (Zucker Fatty rats)
CC(C)(Cc1ccc(C(=O)Oc2ccc(C(=N)N)cc2F)s1)C(=O)Nc1cc(O)cc(C(=O)O)c1 [Compound 74] | 0.58 | 0.18 | – | –
CC(C)(Cc1ccc(C(=O)Oc2ccc(C(=N)N)cc2F)s1)C(=O)O.O=C(O)C(F)(F)F [Compound 87] | 0.39 | 1.3 | – | significantly decreased
CC(C)(Cc1ccc(C(=O)Oc2ccc(C(=N)N)cc2F)s1)C(=O)N[C@H](C(=O)O)c1ccc(O)cc1 [Compound 92] | 0.67 | – | 0.96 | –
